This is an account of results in ChEMBL document CHEMBL6134827, “The discovery of novel antimicrobial peptides against drug-resistant bacteria based on fragments fusion strategy” (Eur J Med Chem, 2025).

The source made the active and inactive calls. Positions of bridges follow the written chain, without caps; N, C: chain ends. Non-standard residues stand in square brackets, D forms with d. Residues, ends and D or L forms follow the SMILES beside them. *: point of attachment. X1 = CC[C@H](C)CCCCC(=O)*; Dab = NCC[C@H](N)C(=O)O Bounds are passed on as bounds.

The nature of data set [1]: Nephrotoxicity in female C57BL/6 mouse assessed as presence of flocculents in lumen at 20 mg/kg, ip administered daily and measured for 5 days by H and E staining based analysis. The note with it: in vivo, 120 h, time 5 day. The format is toxicity, organism-based.
Data set [2] in a line: Toxicity in female C57BL/6 mouse assessed as histopathological change in kidney at 20 mg/kg, ip administered daily and measured for 5 days by H and E staining based analysis. As to conditions: in vivo, 120 h, time 5 day. The class given is organism-based.
Data set [3] in a line: Nephrotoxicity in female C57BL/6 mouse assessed as increase in BUN level at 15 mg/kg, ip administered daily and measured for 5 days. The format is toxicity, organism-based. The note with it: in vivo, 120 h, time 5 day.
The nature of data set [4]: Nephrotoxicity in female C57BL/6 mouse assessed as tubular dilation at 20 mg/kg, ip administered daily and measured for 5 days by H and E staining based analysis. The format is toxicity, organism-based. The note with it: in vivo, 120 h, time 5 day.
Data set [5] relates to Pseudomonas aeruginosa. The experiment in a line: Drug resistance, ratio of MIC for multidrug resistant Pseudomonas aeruginosa after 14 passages to MIC for multidrug resistant Pseudomonas aeruginosa after first exposure. The format is functional.
For data set [6], the system named is Acinetobacter baumannii. The experiment in a line: Antimicrobial activity against multidrug resistant Acinetobacter baumannii assessed as inhibition of visible microbial growth incubated for 18 hrs by broth microdilution method. The class given is functional. On the technique in general: Dilution methods test growth across graded concentrations, often in twofold steps.

Data set [7] relates to Escherichia coli. The experiment in a line: Antimicrobial activity against Escherichia coli ATCC 25922 assessed as inhibition of visible microbial growth incubated for 18 hrs by broth microdilution method. The format is functional.
Data set [8] deals with Escherichia coli. The data set is described as follows: Antimicrobial activity against multidrug resistant Escherichia coli assessed as inhibition of visible microbial growth incubated for 18 hrs by broth microdilution method. The format is functional.
Data set [9] concerns Pseudomonas aeruginosa. The experiment in a line: Antimicrobial activity against multidrug resistant Pseudomonas aeruginosa assessed as inhibition of visible microbial growth incubated for 18 hrs by broth microdilution method. The format is functional.
Data set [10] concerns Pseudomonas aeruginosa. The experiment in a line: Drug resistance, ratio of MIC for multidrug resistant Pseudomonas aeruginosa after 5 passages to MIC for multidrug resistant Pseudomonas aeruginosa after first exposure. The format is functional.
The test system of data set [11] is Staphylococcus aureus. The data set is described as follows: Drug resistance, ratio of MIC for Staphylococcus aureus ATCC 29213 after 14 passages to MIC for Staphylococcus aureus ATCC 29213 after first exposure. The format is functional.
Data set [12] concerns Staphylococcus aureus. The data set is described as follows: Drug resistance, ratio of MIC for multidrug resistant Staphylococcus aureus after 4 passages to MIC for multidrug resistant Staphylococcus aureus after first exposure. The class given is functional.
Data set [13] concerns Staphylococcus aureus. The data set is described as follows: Drug resistance, ratio of MIC for multidrug resistant Staphylococcus aureus after 10 passages to MIC for multidrug resistant Staphylococcus aureus after first exposure. The format is functional.
The test system of data set [14] is Staphylococcus aureus. The data set is described as follows: Antimicrobial activity against multidrug resistant Staphylococcus aureus assessed as inhibition of visible microbial growth incubated for 18 hrs by broth microdilution method. The format is functional.
For data set [15], the system named is Staphylococcus aureus. The data set is described as follows: Drug resistance, ratio of MIC for Staphylococcus aureus ATCC 29213 after 4 passages to MIC for Staphylococcus aureus ATCC 29213 after first exposure. The class given is functional.
The test system of data set [16] is Staphylococcus aureus. The experiment in a line: Antimicrobial activity against Staphylococcus aureus ATCC 29213 assessed as inhibition of visible microbial growth incubated for 18 hrs by broth microdilution method. The format is functional.
The nature of data set [17]: Stability in 25% human plasma assessed as compound remaining measured after 24 hrs by RP-HPLC analysis. The format is ADME, cell-free. As to conditions: 25% plasma, read-out: Stability.
The nature of data set [18]: Cytotoxicity against human BEAS-2B cells assessed as inhibition of cell growth measured after 24 hrs by CCK-8 assay. The format is toxicity, cell-based. (Tetrazolium dyes change colour on reduction, which living cells bring about.)
For data set [19], the system named is Cell membrane. The data set is described as follows: Induction of outer cell membrane permeabilization in multidrug resistant Pseudomonas aeruginosa assessed as increase in fluorescence intensity at >16 microg/ml measured for 12 mins by NPN uptake assay. The format is subcellular. As to conditions: dose > 16.0 µg/ml.
Data set [20] concerns Staphylococcus aureus. The experiment in a line: Antibacterial activity against multidrug resistant Staphylococcus aureus assessed as reduction in bacterial growth at 32 microg/mL measured after 1.5 hrs by bactericidal kinetic assay. The format is functional, organism-based. The note with it: dose 32.0 µg/ml.
Data set [21] concerns BEAS-2B. The data set is described as follows: Cytotoxicity against human BEAS-2B cells assessed as reduction in cell viability at 2 to 64 microg/mL measured after 24 hrs by CCK-8 assay. The format is toxicity, cell-based. As to conditions: dose 2-64 µg/ml.
Data set [22] has as its system Cell membrane. The data set is described as follows: Induction of cytoplasmic membrane depolarization in multidrug resistant Pseudomonas aeruginosa assessed as increase in fluorescence intensity measured for 12 min by DISC3-5 dye based fluorescence analysis. The class given is subcellular. As to conditions: dose 4-32 µg/ml.
Data set [23] is described as follows: Hemolytic activity in human red blood cell assessed as hemolysis at 128 microg/ml measured after 1 hrs by microplate reader assay relative to control. The format is toxicity, cell-based, Erythrocyte. The note with it: red blood cells, at 128 µg/mL, read-out: Activity.
Data set [24] relates to Cell membrane. The experiment in a line: Induction of outer cell membrane permeabilization in multidrug resistant Pseudomonas aeruginosa assessed as increase in fluorescence intensity measured for 12 mins by NPN uptake assay. The class given is subcellular. As to conditions: dose 4-32 µg/ml.
Data set [25] has as its system L02. The data set is described as follows: Cytotoxicity against human LO2 cells assessed as reduction in cell viability at 2 to 64 microg/mL measured after 24 hrs by CCK-8 assay. The note with it: l02, 24 h, dose 2-64 µg/ml. The class given is toxicity, cell-based.
Data set [26] has as its system Pseudomonas aeruginosa. The experiment in a line: Antibacterial activity against multidrug resistant Pseudomonas aeruginosa assessed as reduction in bacterial growth at 32 microg/mL measured within 30 min by bactericidal kinetic assay relative to control. The format is functional. Further details: scale not given: the % may be the effect or the level left. The note with it: dose 32 µg/ml, 0.5 h.

The subject of data set [27] is Bacillus subtilis. The data set is described as follows: Antibacterial activity against Bacillus subtilis. The format is functional.

For `CC(C)CCCCC(=O)N[C@@H](CCN)C(=O)N[C@H](C(=O)N[C@@H](CCN)C(=O)N[C@H]1CCNC(=O)[C@H]([C@@H](C)O)NC(=O)[C@H](CCN)NC(=O)[C@H](CCN)NC(=O)[C@H](CC(C)C)NC(=O)[C@@H](Cc2ccccc2)NC(=O)[C@H](CCN)NC1=O)[C@@H](C)O.CC[C@H](C)CCCCC(=O)N[C@@H](CCN)C(=O)N[C@H](C(=O)N[C@@H](CCN)C(=O)N[C@H]1CCNC(=O)[C@H]([C@@H](C)O)NC(=O)[C@H](CCN)NC(=O)[C@H](CCN)NC(=O)[C@H](CC(C)C)NC(=O)[C@@H](Cc2ccccc2)NC(=O)[C@H](CCN)NC1=O)[C@@H](C)O` (X1-[Dab]T[Dab][Dab][Dab][dF]L[Dab][Dab]T; lactam 4-C) [listing 1 of 2 here], the Activity entry in data set [1] is “Toxic”; in data set [2], “Non-toxic”; in data set [3], “Toxic”; in [4], “Toxic”.

Turning to `CC(C)CCCCC(=O)N[C@@H](CCN)C(=O)N[C@H](C(=O)N[C@@H](CCN)C(=O)N[C@H]1CCNC(=O)[C@H]([C@@H](C)O)NC(=O)[C@H](CCN)NC(=O)[C@H](CCN)NC(=O)[C@H](CC(C)C)NC(=O)[C@@H](Cc2ccccc2)NC(=O)[C@H](CCN)NC1=O)[C@@H](C)O.CC[C@H](C)CCCCC(=O)N[C@@H](CCN)C(=O)N[C@H](C(=O)N[C@@H](CCN)C(=O)N[C@H]1CCNC(=O)[C@H]([C@@H](C)O)NC(=O)[C@H](CCN)NC(=O)[C@H](CCN)NC(=O)[C@H](CC(C)C)NC(=O)[C@@H](Cc2ccccc2)NC(=O)[C@H](CCN)NC1=O)[C@@H](C)O` (X1-[Dab]T[Dab][Dab][Dab][dF]L[Dab][Dab]T; lactam 4-C) [listing 2 of 2 here], in data set [5], the Ratio is on record as 4. Also, the MIC in data set [6] worked out at 0.8 µM; in data set [7] it was 0.4 µM; in data set [8] it was 0.8 µM; in data set [9], 2 µg/mL.

For `C[C@H]1COc2c(N3CCN(C)CC3)c(F)cc3c(=O)c(C(=O)O)cn1c23` [LEVOFLOXACIN ANHYDROUS], the Ratio in data set [10] is recorded as 16; in data set [11], 512; in data set [12] it was 4.

Consider `CN[C@H](CC(C)C)C(=O)N[C@H]1C(=O)N[C@@H](CC(N)=O)C(=O)N[C@H]2C(=O)N[C@H]3C(=O)N[C@H](C(=O)N[C@H](C(=O)O)c4cc(O)cc(O)c4-c4cc3ccc4O)[C@H](O)c3ccc(c(Cl)c3)Oc3cc2cc(c3O[C@@H]2O[C@H](CO)[C@@H](O)[C@H](O)[C@H]2O[C@H]2C[C@](C)(N)[C@H](O)[C@H](C)O2)Oc2ccc(cc2Cl)[C@H]1O` [VANCOMYCIN], for which the Ratio is reported as 2 in data set [13] and 4 in data set [15]. Besides, the MIC in [14] and in data set [16] was 0.7 µM throughout.

For H-GIGKFLKKAKKFGKAFVKILKK-OH, the remaining at 24 h in data set [17] worked out at 34%. Besides, in data set [18], the 50% cytotoxic concentration (CC50) at 24 h came to 45.9 µg/mL. The minimal inhibitory concentration (MIC) amounted to 12.9 µM in [14]; 1.6 µM in data set [6]; 3.2 µM in data set [7]; 3.2 µM in data set [8]; 12.9 µM in data set [16]; 3.2 µM in data set [9]. The result in data set [19] was Active. The Activity result is “Not active; Bacterial Regrowth Observed” in data set [20]; “Toxic” in [21]; “Dose-dependent-effect” in data set [22]; “Dose-dependent-effect” in data set [24]; “Toxic” in [25]; 100% in data set [26]. In addition, the values for the Ratio in [5], in data set [15] and in data set [12] were 4, 8 and 8, respectively. Also, the hemolysis at 1 h, 128 µg/mL in [23] was below 10%.

H-GLRKRLRKFFNKIKF-OH: the MIC was 65.7 µM in data set [14]; 16.4 µM in data set [6]; 8.2 µM in data set [7]; 4.1 µM in data set [8]; 32.8 µM in [16]; above 3 µM in data set [27]. Besides, the minimum inhibitory concentration (MIC) in data set [9] amounted to 16.4 µM.

Turning to H-GLRKWLRKFKKFW-OH, in data set [18], the CC50 at 24 h turned out to be 38.4 µg/mL. In addition, the MIC in data set [14] was 17.8 µM; in data set [6], 4.5 µM; in data set [7], 8.9 µM; in data set [8], 4.5 µM; in data set [16] it was 17.8 µM; in data set [9] it was 4.5 µM. The Activity entry in data set [21] and in data set [25] was “Toxic” throughout. For the same molecule, the hemolysis at 1 h, 128 µg/mL in data set [23] was below 10%.

For orientation: MIC means the smallest concentration in the dilution series that meets the test's criterion for growth inhibition. In general, CC50 refers to the concentration that lowers cell viability or growth by half.
